PubChem BioAssay AID330 (DTP/NCI, 2004)
“And” between values parts separate entries of the source, which are not always exact repeats. Identical values can stand only once. Toxic doses and inconclusive results are not listed. Rule for the calls: active = survival T/C of 150% or more; inactive = T/C below 125% in these data.

System: P388 leukemia ip, CD2F1 mice, survival T/C
Experiment: NCI In Vivo Anticancer Drug Screen. Data for tumor model P388 Leukemia (intraperitoneal) in CD2F1 (CDF1) mice
Settings: endpoint: median survival time, higher = longer survival
How it was run: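 Mice carrying the transplanted tumor received test compound or vehicle. Survival was recorded in each group, and the value is the treated-group measurement divided by that of the vehicle-treated control group.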

[1] = dose: 100.0 mg/kg/injection, schedule: Q01DX001 (ip), vehicle: saline with Tween-80
[2] = dose: 200.0 mg/kg/injection, schedule: Q01DX001 (ip), vehicle: saline with Tween-80

Measured: T/C

CC1(CO)C(O)CCC2(C)C1CCC1CC3CC12CCC3(O)CO (centres undefined)
inactive: dose: 0.78 mg/kg/injection, schedule: Q03HX024 (ip), vehicle: Klucel (hydroxypropylcellulose) (HPC) 106 % of control | dose: 0.78 mg/kg/injection, schedule: Q03HX024 (oral), vehicle: Klucel (hydroxypropylcellulose) (HPC) 100 % of control | dose: 1.56 mg/kg/injection, schedule: Q03HX024 (ip), vehicle: Klucel (hydroxypropylcellulose) (HPC) 93 % of control | dose: 1.56 mg/kg/injection, schedule: Q03HX024 (oral), vehicle: Klucel (hydroxypropylcellulose) (HPC) 99 % of control | dose: 3.12 mg/kg/injection, schedule: Q03HX024 (ip), vehicle: Klucel (hydroxypropylcellulose) (HPC) 100 % of control | dose: 3.12 mg/kg/injection, schedule: Q03HX024 (oral), vehicle: Klucel (hydroxypropylcellulose) (HPC) 102 % of control | dose: 6.25 mg/kg/injection, schedule: Q03HX024 (ip), vehicle: Klucel (hydroxypropylcellulose) (HPC) 102 % of control | dose: 6.25 mg/kg/injection, schedule: Q03HX024 (oral), vehicle: Klucel (hydroxypropylcellulose) (HPC) 98 % of control | dose: 12.5 mg/kg/injection, schedule: Q01DX009 (ip), vehicle: Klucel (hydroxypropylcellulose) (HPC) 109 % of control and 113 % of control | dose: 12.5 mg/kg/injection, schedule: Q03HX024 (ip), vehicle: Klucel (hydroxypropylcellulose) (HPC) 106 % of control | dose: 12.5 mg/kg/injection, schedule: Q03HX024 (oral), vehicle: Klucel (hydroxypropylcellulose) (HPC) 100 % of control | dose: 25.0 mg/kg/injection, schedule: Q01DX009 (ip), vehicle: Klucel (hydroxypropylcellulose) (HPC) 114 % of control and 91 % of control | dose: 25.0 mg/kg/injection, schedule: Q01DX009 (ip), vehicle: saline with Tween-80 112 % of control | dose: 25.0 mg/kg/injection, schedule: Q03HX024 (ip), vehicle: Klucel (hydroxypropylcellulose) (HPC) 119 % of control | dose: 25.0 mg/kg/injection, schedule: Q03HX024 (oral), vehicle: Klucel (hydroxypropylcellulose) (HPC) 100 % of control | dose: 25.0 mg/kg/injection, schedule: Q04DX003 (ip), vehicle: Klucel (hydroxypropylcellulose) (HPC) 100 % of control | dose: 30.0 mg/kg/injection, schedule: Q01DX005 (iv), vehicle: saline with Tween-80 109 % of control | dose: 50.0 mg/kg/injection, schedule: Q01DX009 (ip), vehicle: saline with Tween-80 115 % of control | dose: 50.0 mg/kg/injection, schedule: Q03HX024 (ip), vehicle: Klucel (hydroxypropylcellulose) (HPC) 120 % of control | dose: 50.0 mg/kg/injection, schedule: Q03HX024 (oral), vehicle: Klucel (hydroxypropylcellulose) (HPC) 101 % of control | dose: 50.0 mg/kg/injection, schedule: Q04DX002 (ip), vehicle: Klucel (hydroxypropylcellulose) (HPC) 97 % of control | dose: 50.0 mg/kg/injection, schedule: Q04DX003 (ip), vehicle: Klucel (hydroxypropylcellulose) (HPC) 103 % of control | dose: 60.0 mg/kg/injection, schedule: Q01DX005 (iv), vehicle: saline with Tween-80 107 % of control | dose: 60.0 mg/kg/injection, schedule: Q01DX005 (oral), vehicle: saline with Tween-80 107 % of control | dose: 75.0 mg/kg/injection, schedule: Q04DX002 (ip), vehicle: Klucel (hydroxypropylcellulose) (HPC) 105 % of control | dose: 100.0 mg/kg/injection, schedule: Q01DX009 (ip), vehicle: saline with Tween-80 121 % of control | dose: 100.0 mg/kg/injection, schedule: Q03HX024 (oral), vehicle: Klucel (hydroxypropylcellulose) (HPC) 111 % of control | dose: 100.0 mg/kg/injection, schedule: Q04DX002 (ip), vehicle: Klucel (hydroxypropylcellulose) (HPC) 100 % of control | dose: 100.0 mg/kg/injection, schedule: Q04DX003 (ip), vehicle: Klucel (hydroxypropylcellulose) (HPC) 114 % of control | dose: 120.0 mg/kg/injection, schedule: Q01DX005 (iv), vehicle: saline with Tween-80 100 % of control | dose: 120.0 mg/kg/injection, schedule: Q01DX005 (oral), vehicle: saline with Tween-80 103 % of control | dose: 150.0 mg/kg/injection, schedule: Q04DX002 (ip), vehicle: Klucel (hydroxypropylcellulose) (HPC) 111 % of control | dose: 200.0 mg/kg/injection, schedule: Q01DX009 (ip), vehicle: Klucel (hydroxypropylcellulose) (HPC) 92 % of control and 96 % of control | dose: 200.0 mg/kg/injection, schedule: Q01DX009 (ip), vehicle: saline with Tween-80 105 % of control | dose: 200.0 mg/kg/injection, schedule: Q01DX009 (oral), vehicle: saline with Tween-80 100 % of control | dose: 200.0 mg/kg/injection, schedule: Q04DX002 (ip), vehicle: Klucel (hydroxypropylcellulose) (HPC) 105 % of control | dose: 200.0 mg/kg/injection, schedule: Q04DX003 (ip), vehicle: Klucel (hydroxypropylcellulose) (HPC) 119 % of control | dose: 240.0 mg/kg/injection, schedule: Q01DX005 (ip), vehicle: saline with Tween-80 109 % of control | dose: 240.0 mg/kg/injection, schedule: Q01DX005 (iv), vehicle: saline with Tween-80 106 % of control | dose: 240.0 mg/kg/injection, schedule: Q01DX005 (oral), vehicle: saline with Tween-80 102 % of control | dose: 300.0 mg/kg/injection, schedule: Q04DX002 (ip), vehicle: Klucel (hydroxypropylcellulose) (HPC) 115 % of control | dose: 400.0 mg/kg/injection, schedule: Q01DX009 (oral), vehicle: saline with Tween-80 103 % of control | dose: 400.0 mg/kg/injection, schedule: Q04DX002 (ip), vehicle: Klucel (hydroxypropylcellulose) (HPC) 117 % of control | dose: 480.0 mg/kg/injection, schedule: Q01DX005 (oral), vehicle: saline with Tween-80 107 % of control | dose: 600.0 mg/kg/injection, schedule: Q04DX002 (ip), vehicle: Klucel (hydroxypropylcellulose) (HPC) 117 % of control | dose: 800.0 mg/kg/injection, schedule: Q01DX009 (oral), vehicle: saline with Tween-80 103 % of control | dose: 800.0 mg/kg/injection, schedule: Q04DX002 (ip), vehicle: Klucel (hydroxypropylcellulose) (HPC) 108 % of control | dose: 800.0 mg/kg/injection, schedule: Q04DX003 (ip), vehicle: Klucel (hydroxypropylcellulose) (HPC) 102 % of control | dose: 1200.0 mg/kg/injection, schedule: Q04DX002 (ip), vehicle: Klucel (hydroxypropylcellulose) (HPC) 118 % of control | dose: 1600.0 mg/kg/injection, schedule: Q01DX009 (oral), vehicle: saline with Tween-80 88 % of control

Cc1cc(NC(=O)C(=O)CC(=O)c2ccc(Cl)c(Cl)c2)no1
inactive: [1] 101 % of control | [2] 108 % of control | dose: 400.0 mg/kg/injection, schedule: Q01DX001 (ip), vehicle: saline with Tween-80 97 % of control

CCOC(=O)N1N=C(c2ccccc2)OC2(N3CCOCC3)CCC(C(C)(C)C)CC12 (centres undefined)
inactive: dose: 50.0 mg/kg/injection, schedule: Q01DX005 (ip), vehicle: Klucel (hydroxypropylcellulose) (HPC) 100 % of control | dose: 100.0 mg/kg/injection, schedule: Q01DX005 (ip), vehicle: Klucel (hydroxypropylcellulose) (HPC) 101 % of control | dose: 200.0 mg/kg/injection, schedule: Q01DX005 (ip), vehicle: Klucel (hydroxypropylcellulose) (HPC) 97 % of control

N/N=C(\N)c1nn(C2OC(CO)C(O)C2O)c2ncnc(N)c12 (centres undefined)
inactive: dose: 40.0 mg/kg/injection, schedule: Q01DX005 (ip), vehicle: saline with Tween-80 104 % of control | dose: 80.0 mg/kg/injection, schedule: Q01DX005 (ip), vehicle: saline with Tween-80 104 % of control | dose: 160.0 mg/kg/injection, schedule: Q01DX005 (ip), vehicle: saline with Tween-80 101 % of control | dose: 320.0 mg/kg/injection, schedule: Q01DX005 (ip), vehicle: saline with Tween-80 104 % of control

Cc1ccc2nc(N/N=C/c3ccccn3)cc(C)c2c1
inactive: dose: 50.0 mg/kg/injection, schedule: Q01DX005 (ip), vehicle: saline with Tween-80 103 % of control and 107 % of control and 111 % of control | dose: 100.0 mg/kg/injection, schedule: Q01DX005 (ip), vehicle: saline with Tween-80 110 % of control and 114 % of control and 115 % of control | dose: 200.0 mg/kg/injection, schedule: Q01DX005 (ip), vehicle: saline with Tween-80 110 % of control

COC(=O)C1CC2C3C=CC(C4C(=O)NC(=O)C34)C12OC (centres undefined)
inactive: [1] 95 % of control | [2] 92 % of control

Cn1c(=O)c2c(ncn2CCNC(c2ccccc2)c2ccc(Br)cc2)n(C)c1=O (centres undefined)
inactive: dose: 6.25 mg/kg/injection, schedule: Q01DX005 (ip), vehicle: alkali diluted with saline 100 % of control | dose: 12.5 mg/kg/injection, schedule: Q01DX005 (ip), vehicle: alkali diluted with saline 96 % of control | dose: 25.0 mg/kg/injection, schedule: Q01DX005 (ip), vehicle: alkali diluted with saline 107 % of control

CCC1C(=O)CC(c2ccc(OC)cc2)OC1c1ccc(OC)cc1 (centres undefined)
inactive: dose: 50.0 mg/kg/injection, schedule: Q01DX009 (ip), vehicle: saline 88 % of control | dose: 100.0 mg/kg/injection, schedule: Q01DX009 (ip), vehicle: saline 96 % of control | dose: 200.0 mg/kg/injection, schedule: Q01DX009 (ip), vehicle: saline 99 % of control

O=S(=O)(O)CCc1nn[nH]n1
inactive: dose: 100.0 mg/kg/injection, schedule: Q01DX001 (ip), vehicle: saline 100 % of control | dose: 200.0 mg/kg/injection, schedule: Q01DX001 (ip), vehicle: saline 101 % of control | dose: 400.0 mg/kg/injection, schedule: Q01DX001 (ip), vehicle: saline 101 % of control
